Data reported in patent US6451736B1, “Substituted aromatic thiocarboxylic acid amides and their use as herbicides” (Bayer Aktiengesellschaft, priority 1994, dated 2002).

Tests used:
Type in all cases: in vivo
[1] = system: Abuthilon; test: Pre-emergence test/greenhouse; conditions: Table B, after three weeks
Protocol: (§1) To produce a suitable preparation of active compound, 1 part by weight of active compound is mixed with the stated amount of solvent, the stated amount of emulsifier is added and the concentrate is diluted with water to the desired concentration.
(§2) Seeds of the test plants are sown in normal soil and, after 24 hours, watered with the preparation of active compound. It is expedient to keep constant the amount of water per unit area. The concentration of the active compound in the preparation is of no importance, only the amount of active compound applied per unit area being decisive. After three weeks, the degree of damage to the plants is rated in % damage in comparison to the development of the untreated control. The figures denote:
(§3) 0%=no action (like untreated control)

[2] = system: Amaranthus; test: Pre-emergence test/greenhouse; conditions: after three weeks
Protocol: as §1, §2, §3

[3] = system: Barley; test: Pre-emergence test/greenhouse; conditions: Table A, 125 g/ha, after three weeks
Protocol: as §1, §2, §3

[4] = system: Chenopodium; test: Pre-emergence test/greenhouse; conditions: after three weeks
Protocol: as §1, §2, §3

[5] = system: Maize; test: Pre-emergence test/greenhouse; conditions: after three weeks
Protocol: as §1, §2, §3

[6] = system: Matricaria; test: Pre-emergence test/greenhouse; conditions: after three weeks
Protocol: as §1, §2, §3

[7] = system: Portulaca; test: Pre-emergence test/greenhouse; conditions: after three weeks
Protocol: as §1, §2, §3

[8] = system: Solanum; test: Pre-emergence test/greenhouse; conditions: after three weeks
Protocol: as §1, §2, §3

[9] = system: Wheat; test: Pre-emergence test/greenhouse; conditions: Table B, after three weeks
Protocol: as §1, §2, §3

[10] = system: Abuthilon; test: Post-emergence test/greenhouse; conditions: Table C, after three weeks
Protocol: as §1
(§4) Test plants which have a height of 5-15 cm are sprayed with the preparation of active compound in such a way as to apply the particular amounts of active compound desired per unit area. After three weeks, the degree of damage to the plants is rated in % damage in comparison to the development of the untreated control.
(§5) 0%=no action (like intreated control)

[11] = system: Amaranthus; test: Post-emergence test/greenhouse; conditions: Table C, after three weeks
Protocol: as §1, §4, §5

[12] = system: Chenopodium; test: Post-emergence test/greenhouse; conditions: Table C, after three weeks
Protocol: as §1, §4, §5

[13] = system: Maize; test: Post-emergence test/greenhouse; conditions: Table C, after three weeks
Protocol: as §1, §4, §5

[14] = system: Solanum; test: Post-emergence test/greenhouse; conditions: Table C, after three weeks
Protocol: as §1, §4, §5

[15] = system: Veronica; test: Post-emergence test/greenhouse; conditions: Table C, after three weeks
Protocol: as §1, §4, §5

[16] = system: Wheat; test: Post-emergence test/greenhouse; conditions: Table C, after three weeks
Protocol: as §1, §4, §5

Compound	degree of damage, Abuthilon ([1]; 60 g/ha)	degree of damage, Amaranthus ([2]; Table A, 125 g/ha)	degree of damage, Amaranthus ([2]; Table B, 60 g/ha)	degree of damage, Barley [3]	degree of damage, Chenopodium ([4]; Table A, 125 g/ha)	degree of damage, Chenopodium ([4]; Table B, 60 g/ha)	degree of damage, Maize ([5]; Table A, 125 g/ha)	degree of damage, Maize ([5]; Table B, 60 g/ha)	degree of damage, Matricaria ([6]; Table A, 125 g/ha)	degree of damage, Matricaria ([6]; Table B, 60 g/ha)	degree of damage, Portulaca ([7]; Table A, 125 g/ha)	degree of damage, Portulaca ([7]; Table B, 60 g/ha)	degree of damage, Solanum ([8]; Table A, 125 g/ha)	degree of damage, Solanum ([8]; Table B, 60 g/ha)	degree of damage, Wheat ([9]; 60 g/ha)	other results
C#CC(C)Oc1cc(-n2nc(C(F)F)n(C)c2=S)c(F)cc1C(N)=S (stereo not drawn) [Example 6]	100%	100%	100%	0%	100%	100%	30%	30%	95%	100%	100%	100%	100%	95%	20%	degree of damage, Abuthilon ([10]; 8 g/ha): 100%; degree of damage, Amaranthus ([11]; 8 g/ha): 100%; degree of damage, Chenopodium ([12]; 8 g/ha): 100%; degree of damage, Maize ([13]; 8 g/ha): 50%; degree of damage, Solanum ([14]; 8 g/ha): 100%; degree of damage, Veronica ([15]; 8 g/ha): 95%; degree of damage, Wheat ([16]; 8 g/ha): 30%
CCS(=O)(=O)Nc1cc(-n2nc(C(F)F)n(C)c2=S)c(F)cc1C(N)=S [Example 3, 2-(2-fluoro-4-thiocarbamoyl-5-ethylsulphonylaminophenyl)-4-methyl-5-difluoromethyl-2,4-dihydro-3H-1,2,4-triazole-3-thione]	100%	100%	100%	0%	100%	100%	0%	0%	100%	100%	100%	100%	100%	100%	0%	degree of damage, Abuthilon ([10]; 30 g/ha): 100%; degree of damage, Amaranthus ([11]; 30 g/ha): 100%; degree of damage, Chenopodium ([12]; 30 g/ha): 100%; degree of damage, Maize ([13]; 30 g/ha): 30%; degree of damage, Solanum ([14]; 30 g/ha): 100%; degree of damage, Veronica ([15]; 30 g/ha): 100%; degree of damage, Wheat ([16]; 30 g/ha): 10%
CCn1c(C(F)(F)F)nn(-c2cc(NS(=O)(=O)CC)c(C(N)=S)cc2F)c1=O [Example 5]		100%		0%	100%		0%		90%		90%		100%			degree of damage, Abuthilon ([1]; 125 g/ha): 10%; degree of damage, Amaranthus ([2]; Table B, 125 g/ha): 100%; degree of damage, Chenopodium ([4]; Table B, 125 g/ha): 100%; degree of damage, Maize ([5]; Table B, 125 g/ha): 0%; degree of damage, Matricaria ([6]; Table B, 125 g/ha): 70%; degree of damage, Portulaca ([7]; Table B, 125 g/ha): 90%; degree of damage, Solanum ([8]; Table B, 125 g/ha): 100%; degree of damage, Wheat ([9]; 125 g/ha): 0%; degree of damage, Abuthilon ([10]; 15 g/ha): 100%; degree of damage, Amaranthus ([11]; 15 g/ha): 100%; degree of damage, Chenopodium ([12]; 15 g/ha): 100%; degree of damage, Maize ([13]; 15 g/ha): 20%; degree of damage, Solanum ([14]; 15 g/ha): 100%; degree of damage, Veronica ([15]; 15 g/ha): 100%; degree of damage, Wheat ([16]; 15 g/ha): 10%
